{"source": "patent US20230285227A1", "about": "“INGESTIBLE CAPSULES” (Massachusetts Institute of Technology, priority 2022, published 2023)", "key": {"[1]": {"test": "Franz cell vancomycin permeability, capsule vs direct dilution in donor well", "details": "25 tissue samples from n=5 animals, control = direct dilution in donor well, p<0.05", "method": "Both helical and smooth exteriors were assessed. […] Given inter-animal variability of tissue properties, a ratio of permeability induced by the capsule to the control condition was calculated using a matched-pair format per animal."}, "[2]": {"test": "vancomycin permeability in isolated small intestine sections of anesthetized swine, mesenteric venous blood", "details": "100 mg vancomycin, capsules vs sham control pills, p<0.001", "from_the_text": "In anesthetized swine, sections of the small intestine were isolated to serve as independent testing sites while controlling for animal-specific properties such as hydration status, peristaltic rate, blood pressure, and perfusion."}, "[3]": {"test": "oral insulin delivery via capsule or endoscopic spray in the small intestine, blood glucose and insulin monitoring", "type": "in vivo, swine", "protocol": "Blood glucose and insulin concentrations were monitored for a 75-minute period with the drug delivery starting at 15 minutes."}, "[4]": {"details": "oral insulin, background; cited from earlier work"}, "[5]": {"test": "FITC-dextran uptake with capsule vs direct application", "excerpt": "To assay the capability of the capsule to assist in the delivery of larger molecules, fluorescein isothiocyanate-(FITC) dextran having various molecular weights were delivered using the capsule, at various motor frequencies, and compared to direct application (controls)."}}, "note": "Several values for one entry are separate records, joined by “and”; a condition that tells them apart may be missing. Identical values can stand only once.", "data": [{"molecule": "CN[C@H](CC(C)C)C(=O)N[C@H]1C(=O)N[C@@H](CC(N)=O)C(=O)N[C@H]2C(=O)N[C@H]3C(=O)N[C@H](C(=O)N[C@H](C(=O)O)c4cc(O)cc(O)c4-c4cc3ccc4O)[C@H](O)c3ccc(c(Cl)c3)Oc3cc2cc(c3O[C@@H]2O[C@H](CO)[C@@H](O)[C@H](O)[C@H]2O[C@H]2C[C@](C)(N)[C@H](O)[C@H](C)O2)Oc2ccc(cc2Cl)[C@H]1O", "note": "[vancomycin]", "values": [{"measurement": "increase of vancomycin drug permeability with capsule delivery compared to controls", "setting": "[1]", "value": "over 10 fold"}, {"measurement": "tissue permeability with capsules relative to control", "setting": "[2]", "value": "≥ 20", "unit": "times the control"}]}, {"molecule": "insulin", "values": [{"measurement": "variance of blood glucose from baseline", "setting": "[3]; 100 units insulin by endoscopic spray in the small intestine (control), n=5", "value": "16.6 ± 17.3", "unit": "mg/dL"}, {"measurement": "average blood glucose reduction", "setting": "[3]; 100 units insulin via the capsule, n=7 animals, 75-minute monitoring", "value": "55.54 ± 16.1", "unit": "mg/dL"}, {"measurement": "uptake dynamics compared to subcutaneous or IV injection", "setting": "[3]; capsule delivery of insulin", "value": "more gradual uptake"}, {"measurement": "time to changes in plasma glucose levels", "setting": "[3]; insulin via the capsule", "value": "≤ 15", "unit": "min"}, {"measurement": "animals with hypoglycemia (blood glucose<20 mg/dL) necessitating dextrose infusion", "setting": "[3]; insulin via the capsule, ensued at 60 minutes", "value": "three and 3 out of 7"}, {"measurement": "oral bioavailability", "setting": "[4]", "value": "less than 2.5%"}]}, {"molecule": "fluorescein isothiocyanate-(FITC) dextran", "values": [{"measurement": "uptake increase at 40 kDa and 70 kDa", "setting": "[5]; molecular weights 40 kDa and 70 kDa", "value": "greatest increases"}, {"measurement": "uptake with the capsule compared to direct application", "setting": "[5]; molecular weights as high as 150 kDa, various motor frequencies", "value": "significantly increase uptake"}]}]}
